Measurements reported in article PMC11121064 (International Journal of Molecular Sciences, 2024).

Tests used:
[1] = system: melanoma A375 tumor cell line; experiment: MTT reduction assay, A375 melanoma cells; assay type: cell-based, human; details: for effect on A375 cell viability: 72 h of exposure; for IC50: MTT, 72 h
Procedure: (§1) The cytotoxic activity was measured against the melanoma A375 tumor cell line (ECACC) and the human BJ fibroblast cell line (ATCC) using an MTT reduction assay. The selectivity index (SI) was calculated using the following formula: SI = IC50 (BJ)/ IC50 (A375).
The A375 cell line was purchased from the European Collection of Authenticated Cell Cultures (ECACC, Salisbury, UK) and the BJ human fibroblast cell line from the American Type Culture Collection (ATCC, Manassas, VA, USA). All the cell lines were grown as a monolayer in standard conditions: 37 °C, 100% humidity, under an atmosphere of 5% CO2. […] The BJ cell line was grown in EMEM with EBSS, NEAA and sodium pyruvate with L-Glutamine supplemented, 10% fetal bovine serum and 50 IU/mL penicillin/streptomycin.
(§2) Next, the cells were seeded in 96-well plates at a density of 5000 cells per well and incubated overnight to reach the logarithmic growth phase. […] After 72 h, 10 µL of MTT solution (5 g/L) was added into each well and incubated for an additional four hours. Subsequently, the medium was removed, and 100 µL of dimethyl sulfoxide (DMSO) was added into each well. The absorbance was then measured at 570 nm using a SPECTROstar Nano microplate reader (BMG Biotech Inc., Cary, NC, USA)/Tecan Spark 10M. The mean value from three independent BJ and A375 cell cultures was taken to calculate the cell viability, expressed as a percentage of the control values, i.e., untreated cells assumed as 100%.

[2] = system: human BJ fibroblast cell line; experiment: MTT reduction assay, BJ fibroblasts; assay type: cell-based; details: 72 h
Procedure: as §1
The A375 cell line was purchased from the European Collection of Authenticated Cell Cultures (ECACC, Salisbury, UK) and the BJ human fibroblast cell line from the American Type Culture Collection (ATCC, Manassas, VA, USA). All the cell lines were grown as a monolayer in standard conditions: 37 °C, 100% humidity, under an atmosphere of 5% CO2. The A375 cells were cultured in Dulbecco’s Modified Eagle Medium supplemented with 15% fetal calf serum and 50 IU/mL penicillin/streptomycin. The BJ cell line was grown in EMEM with EBSS, NEAA and sodium pyruvate with L-Glutamine supplemented, 10% fetal bovine serum and 50 IU/mL penicillin/streptomycin.
as §2

[3] = system: clot formation and fibrinolysis in human citrate plasma; experiment: Clot formation and fibrinolysis test (CL-test); details: for CLAUC overall potential for clot formation and fibrinolysis / Fmax maximum clotting / Fvo initial plasma clotting velocity / Lmax maximum lysis / Lvo initial clot fibrinolysis velocity / Sc area under the curve of stable clot formation / Sf area under the fibrinolysis curve / Sr area under the clot formation curve / Tc clot stabilization time / Tf plasma clotting time / Tl fibrinolysis time / Tt thrombin time: mean, n = 3
Procedure: Following this, the impact of the tested complex compounds and their ligands on the overall clot formation and fibrinolysis potential (CLAUC) and individual kinetic parameters was assessed using the CL-test. The analysis was performed using plasma from three different donors.
The blood samples used were residual materials from routine diagnostic studies, destined for disposal as medical waste. […] Platelet-poor plasma (PPP) and red blood cells were obtained using centrifugation at 3000× g for 10 min at room temperature using a Mikro 22R centrifuge (Hettich Zentrifugen, Tuttlingen, Germany). The plasma was used for the hemostasis tests. Before use, the centrifuged erythrocyte mass was washed three times with physiological saline solution to remove the plasma protein residues and other blood cells.
The influence of the compounds on the overall hemostasis potential was determined using the CL-test through continuous measurement of changes in optical transmittance, as described previously [53, 54]. The experiments were conducted using three-fold diluted human citrate plasma, t-PA and thrombin. […] The results are presented as means ± SD (n = 3). The curves were used to determine the kinetic parameters of clot formation, stabilization and fibrinolysis using dedicated software [51]. The following parameters of clot formation were determined: Tt—thrombin time (s), Fmax—maximum clotting (%T), Tf—plasma clotting time (s), Fvo—initial plasma clotting velocity (%T/min), Sr—area under the clot formation curve (%Txmin). The parameters of the clot stabilization phase comprised Tc—clot stabilization time (s) and Sc—area under the curve of stable clot formation (%Txmin). The parameters of fibrinolysis comprised Lmax—maximum lysis (%T), Tl—fibrinolysis time (s), Lvo—initial clot fibrinolysis velocity (%T/min) and Sf—area under the fibrinolysis curve (%Txmin). Additionally, the overall potential for clot formation and fibrinolysis, i.e., CLAUC (%Txmin), was also estimated.

[4] = system: extrinsic coagulation pathway; experiment: Prothrombin time (PT) and INR in human citrated plasma; details: up to 100 µmol/L; reference PT 9.7–14.6 s, INR 0.8–1.2
Procedure: The first stage assessed the changes in plasma hemostasis occurring under the influence of the five test compounds. Plasma was incubated with the tested compounds and ligands at six different concentrations ranging from 0.5 to 100 µmol/L. The plasma was obtained from five different volunteers. To evaluate the impact on the extrinsic coagulation pathway, the prothrombin time (PT) was determined in human citrated plasma, expressed in seconds and as the international normalized ratio (INR) (Figure 6 and Figure 7).
The plasma was used for the hemostasis tests.
The results are presented as means ± standard deviation (SD).

N.N.[Cl][Pt][Cl] [Cisplatin, cisplatin]
effect on A375 cell viability [1]: dose-dependent cytotoxic effect | IC50 [1]: 8.5 ± 0.3 µM | IC50 [2]: 24 ± 0.8 µM

Clc1ccc(COC(Cn2ccnc2)c2ccc(Cl)cc2Cl)c(Cl)c1 (stereo not drawn) [MCZ, miconazole]
effect on A375 cell viability [1]: dose-dependent reduction

Cc1ncc([N+](=O)[O-])n1CCO [MTZ, metronidazole]
IC50 ([1]; Homo sapiens, A-375): > 100 µM | IC50 ([2]; Homo sapiens, Fibroblast): > 100 µM | effect on CLAUC and kinetic parameters of clot formation and lysis ([3]; entire concentration range 0.5–100 µmol/L): no significant differences

Cc1ncc([N+](=O)[O-])n1CCO.Cc1ncc([N+](=O)[O-])n1CCO.O=[N+]([O-])[O-].[Ag+] [[(MTZ)2AgNO3]]
IC50 [1]: 3 ± 0.3 µM | IC50 [2]: 46 ± 1.6 µM | prolongation of PT and INR beyond the reference range [4]: do not cause pathological prolongation | CLAUC overall potential for clot formation and fibrinolysis ([3]; 0.5 µmol/L): 287.9 %*min | Fmax maximum clotting ([3]; 0.5 µmol/L): 64.4% | Fvo initial plasma clotting velocity ([3]; 0.5 µmol/L): 126.7 %/min | Lmax maximum lysis ([3]; 0.5 µmol/L): 61.9% | Lvo initial clot fibrinolysis velocity ([3]; 0.5 µmol/L): 20.9 %/min | Sc area under the curve of stable clot formation ([3]; 0.5 µmol/L): 118.4 %*min | Sf area under the fibrinolysis curve ([3]; 0.5 µmol/L): 125.5 %*min | Sr area under the clot formation curve ([3]; 0.5 µmol/L): 44.1 %*min | Tc clot stabilization time ([3]; 0.5 µmol/L): 114.3 s | Tf plasma clotting time ([3]; 0.5 µmol/L): 61.9 s | Tl fibrinolysis time ([3]; 0.5 µmol/L): 158.7 s | Tt thrombin time ([3]; 0.5 µmol/L): 21.3 s | CLAUC overall potential for clot formation and fibrinolysis ([3]; 1.0 µmol/L): 275.7 %*min | Fmax maximum clotting ([3]; 1.0 µmol/L): 62.2% | Fvo initial plasma clotting velocity ([3]; 1.0 µmol/L): 126.3 %/min | Lmax maximum lysis ([3]; 1.0 µmol/L): 61.5% | Lvo initial clot fibrinolysis velocity ([3]; 1.0 µmol/L): 19.5 %/min | Sc area under the curve of stable clot formation ([3]; 1.0 µmol/L): 125.5 %*min | Sf area under the fibrinolysis curve ([3]; 1.0 µmol/L): 105.1 %*min | Sr area under the clot formation curve ([3]; 1.0 µmol/L): 45.1 %*min | Tc clot stabilization time ([3]; 1.0 µmol/L): 124.7 s | Tf plasma clotting time ([3]; 1.0 µmol/L): 65.9 s | Tl fibrinolysis time ([3]; 1.0 µmol/L): 175.0 s | Tt thrombin time ([3]; 1.0 µmol/L): 21.6 s | CLAUC overall potential for clot formation and fibrinolysis ([3]; 5.0 µmol/L): 343.6 %*min | Fmax maximum clotting ([3]; 5.0 µmol/L): 70.7% | Fvo initial plasma clotting velocity ([3]; 5.0 µmol/L): 157.7 %/min | Lmax maximum lysis ([3]; 5.0 µmol/L): 70.5% | Lvo initial clot fibrinolysis velocity ([3]; 5.0 µmol/L): 21.9 %/min | Sc area under the curve of stable clot formation ([3]; 5.0 µmol/L): 169.8 %*min | Sf area under the fibrinolysis curve ([3]; 5.0 µmol/L): 129.1 %*min | Sr area under the clot formation curve ([3]; 5.0 µmol/L): 44.7 %*min | Tc clot stabilization time ([3]; 5.0 µmol/L): 146.7 s | Tf plasma clotting time ([3]; 5.0 µmol/L): 59.4 s | Tl fibrinolysis time ([3]; 5.0 µmol/L): 199.0 s | Tt thrombin time ([3]; 5.0 µmol/L): 19.2 s | CLAUC overall potential for clot formation and fibrinolysis ([3]; 10.0 µmol/L): 284.4 %*min | Fmax maximum clotting ([3]; 10.0 µmol/L): 61.4% | Fvo initial plasma clotting velocity ([3]; 10.0 µmol/L): 121.6 %/min | Lmax maximum lysis ([3]; 10.0 µmol/L): 60.2% | Lvo initial clot fibrinolysis velocity ([3]; 10.0 µmol/L): 19.5 %/min | Sc area under the curve of stable clot formation ([3]; 10.0 µmol/L): 126.7 %*min | Sf area under the fibrinolysis curve ([3]; 10.0 µmol/L): 117.2 %*min | Sr area under the clot formation curve ([3]; 10.0 µmol/L): 40.5 %*min | Tc clot stabilization time ([3]; 10.0 µmol/L): 126.7 s | Tf plasma clotting time ([3]; 10.0 µmol/L): 62.3 s | Tl fibrinolysis time ([3]; 10.0 µmol/L): 180.3 s | Tt thrombin time ([3]; 10.0 µmol/L): 23.3 s | CLAUC overall potential for clot formation and fibrinolysis ([3]; 50.0 µmol/L): 280.7 %*min | Fmax maximum clotting ([3]; 50.0 µmol/L): 63.8% | Fvo initial plasma clotting velocity ([3]; 50.0 µmol/L): 129.0 %/min | Lmax maximum lysis ([3]; 50.0 µmol/L): 61.8% | Lvo initial clot fibrinolysis velocity ([3]; 50.0 µmol/L): 22.0 %/min | Sc area under the curve of stable clot formation ([3]; 50.0 µmol/L): 123.25 %*min | Sf area under the fibrinolysis curve ([3]; 50.0 µmol/L): 118.6 %*min | Sr area under the clot formation curve ([3]; 50.0 µmol/L): 38.9 %*min | Tc clot stabilization time ([3]; 50.0 µmol/L): 119.3 s | Tf plasma clotting time ([3]; 50.0 µmol/L): 56.9 s | Tl fibrinolysis time ([3]; 50.0 µmol/L): 164.7 s | Tt thrombin time ([3]; 50.0 µmol/L): 22.5 s | CLAUC overall potential for clot formation and fibrinolysis ([3]; 100.0 µmol/L): 318.6 %*min | Fmax maximum clotting ([3]; 100.0 µmol/L): 68.6% | Fvo initial plasma clotting velocity ([3]; 100.0 µmol/L): 124.9 %/min | Lmax maximum lysis ([3]; 100.0 µmol/L): 67.2% | Lvo initial clot fibrinolysis velocity ([3]; 100.0 µmol/L): 29.6 %/min | Sc area under the curve of stable clot formation ([3]; 100.0 µmol/L): 146.3 %*min | Sf area under the fibrinolysis curve ([3]; 100.0 µmol/L): 131.8 %*min | Sr area under the clot formation curve ([3]; 100.0 µmol/L): 40.4 %*min | Tc clot stabilization time ([3]; 100.0 µmol/L): 131.3 s | Tf plasma clotting time ([3]; 100.0 µmol/L): 59.2 s | Tl fibrinolysis time ([3]; 100.0 µmol/L): 188.7 s | Tt thrombin time ([3]; 100.0 µmol/L): 22.4 s

Clc1ccc(COC(Cn2ccnc2)c2ccc(Cl)cc2Cl)c(Cl)c1.Clc1ccc(COC(Cn2ccnc2)c2ccc(Cl)cc2Cl)c(Cl)c1.[Ag+].[F][Sb-]([F])([F])([F])([F])[F] (stereo not drawn) [[Ag(MCZ)2SbF6]]
IC50 [1]: 18.5 ± 2.4 µM | IC50 [2]: 16 ± 0.9 µM
